Measurements published in patent US12091426B2, “Bifunctional degraders of hematopoietic progenitor kinase and therapeutic uses thereof” (Nurix Therapeutics, Inc., priority 2021, dated 2024).

Target: T1, HPK1 (Homo sapiens, UniProt Q92918)
T1 construct: A HiBiT tag was introduced by CRISPR on the N terminus of HPK1 in Jurkat cells; host or cells: Jurkat cells (ATCC TIB-152), monoclonal line with CRISPR knock-in of HiBiT at the endogenous HPK1 locus
Assay: HPK1 Cellular HiBit Degradation Assay
Format: cell-based
Conditions: HiBiT HPK1 Jurkat cells, 24 hrs; for DC50: concentration at which 50% of HPK1 was remaining, read-out: DC50 Category; for Dmax: Jurkat, maximum degradation vs DMSO vehicle control, read-out: Dmax Category
Summary of the method: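 HPK1 levels are read by HiBiT luminescence after 24 h exposure of HiBiT-knock-in Jurkat cells to compound at 10 uM–0.1 nM final (11 points). Relative to DMSO (100%), DC50 is the concentration leaving 50% HPK1 from a variable-slope fit, and Dmax is 100 minus minimum remaining. Viability checked in-plate.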

T1 sequence (Q92918 whole entry): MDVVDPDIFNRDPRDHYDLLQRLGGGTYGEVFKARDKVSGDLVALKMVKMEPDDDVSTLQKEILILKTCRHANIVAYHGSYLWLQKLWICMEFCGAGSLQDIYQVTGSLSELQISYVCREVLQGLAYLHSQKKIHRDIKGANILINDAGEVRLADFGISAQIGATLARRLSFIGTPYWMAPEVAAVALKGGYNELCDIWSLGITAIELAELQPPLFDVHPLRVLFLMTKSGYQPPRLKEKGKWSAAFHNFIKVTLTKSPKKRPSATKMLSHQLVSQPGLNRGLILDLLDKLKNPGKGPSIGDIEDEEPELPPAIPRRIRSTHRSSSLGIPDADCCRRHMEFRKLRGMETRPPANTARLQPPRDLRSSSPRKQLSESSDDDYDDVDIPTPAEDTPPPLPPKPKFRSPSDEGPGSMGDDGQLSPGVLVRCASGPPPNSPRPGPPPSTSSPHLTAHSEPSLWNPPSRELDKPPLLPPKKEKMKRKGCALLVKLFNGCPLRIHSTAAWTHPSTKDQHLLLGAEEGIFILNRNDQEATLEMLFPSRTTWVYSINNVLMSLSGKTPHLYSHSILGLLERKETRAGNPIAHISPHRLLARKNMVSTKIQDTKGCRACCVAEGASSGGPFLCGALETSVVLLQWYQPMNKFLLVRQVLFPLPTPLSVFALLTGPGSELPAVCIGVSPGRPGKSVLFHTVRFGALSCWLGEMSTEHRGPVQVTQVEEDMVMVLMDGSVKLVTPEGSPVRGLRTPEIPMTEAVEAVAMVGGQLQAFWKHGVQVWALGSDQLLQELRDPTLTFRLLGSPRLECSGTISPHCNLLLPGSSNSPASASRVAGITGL

SMILES	DC50 [nM]	Dmax [%]
CC(C)n1cnc2cc(-c3ccc4c(c3)N([C@H]3C[C@@H](N5CCCCC5)C3)C(=O)C43CCN(C(=O)[C@@H]4CCN(C(=O)C5CCN(c6ccc(C7CCC(=O)NC7=O)cn6)CC5)[C@H](C)C4)CC3)nc(NC3CC3)c21 (mixture of isomers) [Example 245, (3RS)-3-(6-{4-[(2R,4R)-4-({6-[4-(cyclopropylamino)-3-(propan-2-yl)-3H-imidazo[4,5-c]pyridin-6-yl]-2-oxo-1-[(1S,3S)-3-(piperidin-1-yl)cyclobutyl]-1,2-dihydrospiro[indole-3,4′-piperidin]-1′-yl}carbonyl)-2-methylpiperidine-1-carbonyl]piperidin-1-yl}pyridin-3-yl)piperidine-2,6-dione]	< 100	70 to 85
CC(C)n1cnc2cc(-c3ccc4c(c3)N([C@H]3C[C@@H](N5CCCCC5)C3)C(=O)C43CCN(C(=O)[C@H]4C[C@@H](C)CN(C(=O)C5CCN(c6ccc(C7CCC(=O)NC7=O)cn6)CC5)C4)CC3)nc(NC3CC3)c21 (mixture of isomers) [Example 246, (3RS)-3-(6-{4-[(3S,5R)-3-({6-[4-(cyclopropylamino)-3-(propan-2-yl)-3H-imidazo[4,5-c]pyridin-6-yl]-2-oxo-1-[(1S,3S)-3-(piperidin-1-yl)cyclobutyl]-1,2-dihydrospiro[indole-3,4′-piperidin]-1′-yl}carbonyl)-5-methylpiperidine-1-carbonyl]piperidin-1-yl}pyridin-3-yl)piperidine-2,6-dione]	100 to 500	50 to 70
CC(C)n1cnc2cc(-c3ccc4c(c3)N([C@H]3C[C@@H](N5CCCCC5)C3)C(=O)C43CCN(C(=O)[C@H]4CCN(C(=O)C5CCN(c6ccc(C7CCC(=O)NC7=O)cn6)CC5)C[C@H]4C)CC3)nc(NC3CC3)c21 (mixture of isomers) [Example 247, (3RS)-3-(6-{4-[(3S,4S)-4-({6-[4-(cyclopropylamino)-3-(propan-2-yl)-3H-imidazo[4,5-c]pyridin-6-yl]-2-oxo-1-[(1S,3S)-3-(piperidin-1-yl)cyclobutyl]-1,2-dihydrospiro[indole-3,4′-piperidin]-1′-yl}carbonyl)-3-methylpiperidine-1-carbonyl]piperidin-1-yl}pyridin-3-yl)piperidine-2,6-dione]	< 100	70 to 85
CC(C)n1cnc2cc(-c3ccc4c(c3)N([C@H]3C[C@@H](N5CCCCC5)C3)C(=O)C43CCN(C(=O)[C@H]4CN(C(=O)C5CCN(c6ccc(C7CCC(=O)NC7=O)cn6)CC5)C[C@H]4C)CC3)nc(NC3CC3)c21 (mixture of isomers) [Example 248, (3RS)-3-(6-{4-[(3R,4S)-3-({6-[4-(cyclopropylamino)-3-(propan-2-yl)-3H-imidazo[4,5-c]pyridin-6-yl]-2-oxo-1-[(1S,3S)-3-(piperidin-1-yl)cyclobutyl]-1,2-dihydrospiro[indole-3,4′-piperidin]-1′-yl}carbonyl)-4-methylpyrrolidine-1-carbonyl]piperidin-1-yl}pyridin-3-yl)piperidine-2,6-dione]	< 100	> 85
CC(C)n1cnc2cc(-c3ccc4c(c3)N([C@H]3C[C@@H](N5CCCCC5)C3)C(=O)C43CCN(C(=O)[C@@H]4CCN(C(=O)C5CCN(c6ccc(C7CCC(=O)NC7=O)cn6)CC5)[C@@H]4C)CC3)nc(Nc3ccccc3F)c21 (mixture of isomers) [Example 249, (3RS)-3-(6-{4-[(2R,3R)-3-[(6-{4-[(2-fluorophenyl)amino]-3-(propan-2-yl)-3H-imidazo[4,5-c]pyridin-6-yl}-2-oxo-1-[(1S,3S)-3-(piperidin-1-yl)cyclobutyl]-1,2-dihydrospiro[indole-3,4′-piperidin]-1′-yl)carbonyl]-2-methylpyrrolidine-1-carbonyl]piperidin-1-yl}pyridin-3-yl)piperidine-2,6-dione]	< 100	50 to 70
CC(C)n1cnc2cc(-c3ccc4c(c3)N([C@H]3C[C@@H](N5CCCCC5)C3)C(=O)C43CCN(C(=O)C4CN(C(=O)C5CCN(c6ccc(C7CCC(=O)NC7=O)cn6)CC5)CC(C)(C)C4)CC3)nc(NC3CC3)c21 (mixture of isomers) [Example 250, (3RS)-3-(6-{4-[5-({6-[4-(cyclopropylamino)-3-(propan-2-yl)-3H-imidazo[4,5-c]pyridin-6-yl]-2-oxo-1-[(1S,3S)-3-(piperidin-1-yl)cyclobutyl]-1,2-dihydrospiro[indole-3,4′-piperidin]-1′-yl}carbonyl)-3,3-dimethylpiperidine-1-carbonyl]piperidin-1-yl}pyridin-3-yl)piperidine-2,6-dione]	< 100	70 to 85
CC(C)n1cnc2cc(-c3ccc4c(c3)N([C@H]3C[C@@H](N5CCCCC5)C3)C(=O)C43CCN(C(=O)C45CCC(C)(C4)N(C(=O)C4CCN(c6ccc(C7CCC(=O)NC7=O)cn6)CC4)C5)CC3)nc(NC3CC3)c21 (mixture of isomers) [Example 251, (3RS)-3-(6-{4-[4-({6-[4-(cyclopropylamino)-3-(propan-2-yl)-3H-imidazo[4,5-c]pyridin-6-yl]-2-oxo-1-[(1S,3S)-3-(piperidin-1-yl)cyclobutyl]-1,2-dihydrospiro[indole-3,4′-piperidin]-1′-yl}carbonyl)-1-methyl-2-azabicyclo[2.2.1]heptane-2-carbonyl]piperidin-1-yl}pyridin-3-yl)piperidine-2,6-dione]	< 100	50 to 70
CC(C)n1cnc2cc(-c3ccc4c(c3)N([C@H]3C[C@@H](N5CCCCC5)C3)C(=O)C43CCN(C(=O)[C@H]4CN(C(=O)C5CCN(c6ccc(C7CCC(=O)NC7=O)cc6)CC5)CC4(C)C)CC3)nc(NC3CC3)c21 (mixture of isomers) [Example 252, (3RS)-3-(4-{4-[(4R)-4-({6-[4-(cyclopropylamino)-3-(propan-2-yl)-3H-imidazo[4,5-c]pyridin-6-yl]-2-oxo-1-[(1S,3S)-3-(piperidin-1-yl)cyclobutyl]-1,2-dihydrospiro[indole-3,4′-piperidin]-1′-yl}carbonyl)-3,3-dimethylpyrrolidine-1-carbonyl]piperidin-1-yl}phenyl)piperidine-2,6-dione]	< 100	70 to 85
CC1CN(C(=O)C2CCN(c3ccc(C4CCC(=O)NC4=O)cn3)CC2)CCC1C(=O)N1CCC2(CC1)C(=O)N([C@H]1C[C@@H](N3CCCCC3)C1)c1cc(-c3cc4ncn(C(C)C)c4c(NC4CC4)n3)ccc12 (mixture of isomers) [Example 253, (3RS)-3-(6-{4-[4-({6-[4-(cyclopropylamino)-3-(propan-2-yl)-3H-imidazo[4,5-c]pyridin-6-yl]-2-oxo-1-[(1S,3S)-3-(piperidin-1-yl)cyclobutyl]-1,2-dihydrospiro[indole-3,4′-piperidin]-1′-yl}carbonyl)-3-methylpiperidine-1-carbonyl]piperidin-1-yl}pyridin-3-yl)piperidine-2,6-dione]	< 100	70 to 85
CC1C(C(=O)N2CCC3(CC2)C(=O)N([C@H]2C[C@@H](N4CCCCC4)C2)c2cc(-c4cc5ncn(C(C)C)c5c(NC5CC5)n4)ccc23)CCCN1C(=O)C1CCN(c2ccc(C3CCC(=O)NC3=O)cc2)CC1 (mixture of isomers) [Example 254, (3RS)-3-(4-{4-[3-({6-[4-(cyclopropylamino)-3-(propan-2-yl)-3H-imidazo[4,5-c]pyridin-6-yl]-2-oxo-1-[(1S,3S)-3-(piperidin-1-yl)cyclobutyl]-1,2-dihydrospiro[indole-3,4′-piperidin]-1′-yl}carbonyl)-2-methylpiperidine-1-carbonyl]piperidin-1-yl}phenyl)piperidine-2,6-dione]	100 to 500	50 to 70
CCC1(C(=O)N2CCC3(CC2)C(=O)N([C@H]2C[C@@H](N4CCCCC4)C2)c2cc(-c4cc5ncn(C(C)C)c5c(NC5CC5)n4)ccc23)CCN(C(=O)C2CCN(c3ccc(C4CCC(=O)NC4=O)cn3)CC2)CC1 (mixture of isomers) [Example 255, (3RS)-3-(6-{4-[4-({6-[4-(cyclopropylamino)-3-(propan-2-yl)-3H-imidazo[4,5-c]pyridin-6-yl]-2-oxo-1-[(1S,3S)-3-(piperidin-1-yl)cyclobutyl]-1,2-dihydrospiro[indole-3,4′-piperidin]-1′-yl}carbonyl)-4-ethylpiperidine-1-carbonyl]piperidin-1-yl}pyridin-3-yl)piperidine-2,6-dione]	< 100	> 85
COC1CC(C(=O)N2CCC3(CC2)C(=O)N([C@H]2C[C@@H](N4CCCCC4)C2)c2cc(-c4cc5ncn(C(C)C)c5c(NC5CC5)n4)ccc23)CN(C(=O)C2CCN(c3ccc(C4CCC(=O)NC4=O)cn3)CC2)C1 (mixture of isomers) [Example 256, (3RS)-3-(6-{4-[3-({6-[4-(cyclopropylamino)-3-(propan-2-yl)-3H-imidazo[4,5-c]pyridin-6-yl]-2-oxo-1-[(1S,3S)-3-(piperidin-1-yl)cyclobutyl]-1,2-dihydrospiro[indole-3,4′-piperidin]-1′-yl}carbonyl)-5-methoxypiperidine-1-carbonyl]piperidin-1-yl}pyridin-3-yl)piperidine-2,6-dione]	100 to 500	50 to 70
COC1CN(C(=O)C2CCN(c3ccc(C4CCC(=O)NC4=O)cc3)CC2)CCC1C(=O)N1CCC2(CC1)C(=O)N([C@H]1C[C@@H](N3CCCCC3)C1)c1cc(-c3cc4ncn(C(C)C)c4c(NC4CC4)n3)ccc12 (mixture of isomers) [Example 257, (3RS)-3-(4-{4-[4-({6-[4-(cyclopropylamino)-3-(propan-2-yl)-3H-imidazo[4,5-c]pyridin-6-yl]-2-oxo-1-[(1S,3S)-3-(piperidin-1-yl)cyclobutyl]-1,2-dihydrospiro[indole-3,4′-piperidin]-1′-yl}carbonyl)-3-methoxypiperidine-1-carbonyl]piperidin-1-yl}phenyl)piperidine-2,6-dione]	< 100	50 to 70
